In patent US20230046728A1, “TECHNOLOGIES USEFUL FOR ASSESSING PERMEABILITY” (FOG PHARMACEUTICALS, INC., priority 2019, published 2023):

Test system: Expi293 cells transfected with His-Halotag
Test: Library cell penetration assay, cell crash method (Example 6)
Format: in vitro ADME, human
Experimental: Animal cells (e.g., Expi293 cells or human HEK 293 cells) were seeded in tissue culture plates and cultured in Opti-MEM media. The cells were set in PETG flasks at a concentration of 6×10^5 cells/mL and a volume of 30 mL. The cell viability was checked to be above 90-93%. The flasks were placed in a shaking incubator at 300 rpm in 8% CO2.
After 24 hours of incubation, for each flask, one 1.5-mL Lo-bind tube and one 2-mL Lo-Bind tube were prepared. In the 1.5-mL tube, 30 μg of polyhistidine-tagged halotag (His-Halotag) plasmid and Opti-MEM media were added to provide a 1-mL mixture. In the 2-mL Lo-Bind tube, 60 μL of ExpiFectamine and 940 μL of Opti-MEM were added. After 5 minutes, the plasmid/Opti-MEM mixture was added to the ExpiFectamine/Opti-MEM mixture. The combined mixture was placed in an incubator at room temperature for 20 minutes, which was subsequently added to the flask.
After 48 hours of transfection, the transfected cells were checked for viability (90% or higher). The transfected cells were transferred to a protein Lo-Bind Eppendorf 96-well deep well plate (1000 μL), where each well contained 1 million cells in 500 μL of Expi293 media.
Solutions of candidate compounds, either individual peptides or peptides from a peptide library (DPLs), were received at a stock concentration of 10 mM and diluted in DMSO and kept in a “Source Plate”. For DPLs, the peptide concentration in the “Source Plate” was 1 mM, whereas for individual peptides, the concentration was either 100 μM (for a final concentration of 100 nM) or 10 μM (for a final concentration of 10 nM). […] of the DPL or individual peptide solution was added in triplicates to the 96-well plate. The cells were kept in a shaking incubator at 300 rpm and 37 ° C., 8% CO2 overnight for about 18-20 hours.
The following day, one of the following two methods was performed: i) capture beads method or ii) cell crash method.
Cell crash method: the 96-well plate was placed in the centrifuge at 300 g for 5 minutes. 720 μL of the supernatant was removed. The cells were resuspended in residual 200 μL of media. The suspensions were transferred to a 96-well v-bottom plate, which was placed in the centrifuge at 300 g for an additional 5 minutes. All remaining media was removed. The cell pellets were washed with 200 μL of PBS, mixed and placed back in the centrifuge at 300 g and 4 ° C. for an additional 5 minutes. The supernatant was removed and 80 μL of PBS was added.
80 μL of eluted proteins/peptides from the capture beads method or the PBD solution from the cell crash method was transferred into a deepwell low binding plate (500 μL). 80 μL of ammonium hydroxide was added. The plate was kept on a shaker at 37 ° C. for 3 hours. The plate was dried in a speedvac overnight.
The following day, the dried cell pellet was resuspended in 70 μL of 47.5% water with 0.1% FA/47.5% ACN with 0.1% FA/10 μM pepmix (10 mM stock)/5% fresh DMSO. The mixture was let sit in the plate for 1 hour to allow the dissolution of the pellet. If the sample appeared cloudy, more resuspension solution was added (50 μL at a time). 50 μL was transferred directly to the mass spec plate and the plate was sealed with the 384-well plate seal.
Once all samples were added (including cell free), the plate was placed in an autosampler of a mass spectrometer. For the mass spectrometry analysis, methods from example 1 were employed.
Results from certain assessment were presented blow. Cell crash method was utilized. Mass Shifted Peptide Theoretical Max signal is signal of an agent comprising —OH obtained when using the DhaA to convert input agent comprising —Cl into product agent comprising —OH form without involving cells (multiple agents may be converted simultaneously; in some embodiments, can be performed library by library). In some embodiments, each library pool plus positive and negative references was tested in a single well, which in some cases contain about a million or so cells. […]

[1] = Mass Shifted Peptide Signal in Cells divided by Theoretical Max Signal per replicate pair, averaged
[2] = library pool tested as mixture, MS signal of unconverted —Cl agent
[3] = library pool tested as mixture, MS signal of —OH agent
[4] = MS signal of unconverted —Cl agent from cells, library pool or individual peptide
[5] = MS signal of —OH agent from cells, library pool or individual peptide
[6] = Mass Shifted Peptide Signal in Cells divided by Mass Shifted Peptide Theoretical Max Signal, averaged across replicates

Row | SMILES | Cell Penetration Score [1] | Peptide Signal in Cells (from cells; agents comprising —Cl) [2] | Mass Shifted Peptide Signal in Cells [3] | Peptide Signal in Cells (from cells; agents comprising —Cl) [4] | Mass Shifted Peptide Signal in Cells [5] | Cell Penetration Score [6]
1 | CC(C)C[C@H](NC(=O)CCC(=O)NCCOCCOCCCCCCCl)C(=O)N[C@H](C(=O)N[C@@H](Cc1ccccc1)C(=O)N[C@]1(C)CCCCCCC=CCCC[C@@](C)(C(=O)N[C@@H](CO)C(=O)N[C@@H](C)C(=O)N[C@@H](C)C(N)=O)NC(=O)[C@H](CC2CCC2)NC(=O)[C@H](CCC(N)=O)NC(=O)[C@H](C)NC(=O)[C@H](Cc2c[nH]c3ccccc23)NC(=O)[C@H](Cc2ccc(O)cc2)NC(=O)[C@H](C)NC1=O)[C@@H](C)O [PEP000116, HaloTagO2-Leu-Thr-Phe-R8-Ala-Tyr-Trp-Ala-Gln-Cba-S5-Ser-Ala-Ala-NH2] | 475 | 4E+07 | 4E+07 |  |  | 
2 | CC(C)C[C@H](NC(=O)CCC(=O)NCCOCCOCCCCCCCl)C(=O)N[C@H](C(=O)N[C@@H](Cc1ccccc1)C(=O)N[C@]1(C)CCCCCCC=CCCC[C@@](C)(C(=O)N[C@@H](CO)C(=O)N[C@@H](C)C(=O)N[C@@H](C)C(N)=O)NC(=O)[C@H](CC2CCC2)NC(=O)[C@H]([C@@H](C)O)NC(=O)[C@H](C)NC(=O)[C@H](Cc2c[nH]c3ccccc23)NC(=O)[C@H](Cc2ccc(O)cc2)NC(=O)[C@H](CCC(=O)O)NC1=O)[C@@H](C)O [PEP000123, HaloTagO2-Leu-Thr-Phe-R8-Glu-Tyr-Trp-Ala-Thr-Cba-S5-Ser-Ala-Ala-NH2] |  |  |  | 1E+07 | 9E+07 | 1083
3 | CC(C)C[C@H](NC(=O)CCC(=O)NCCOCCOCCCCCCCl)C(=O)N[C@H](C(=O)N[C@@H](Cc1ccccc1)C(=O)N[C@]1(C)CCCCCCC=CCCC[C@@](C)(C(=O)N[C@@H](CO)C(=O)N[C@@H](C)C(=O)N[C@@H](C)C(N)=O)NC(=O)[C@H](CC2CCC2)NC(=O)[C@H](CCC(N)=O)NC(=O)[C@H](C)NC(=O)[C@H](Cc2c[nH]c3ccccc23)NC(=O)[C@H](Cc2ccc(O)cc2)NC(=O)[C@H]([C@@H](C)O)NC1=O)[C@@H](C)O [PEP000118, HaloTagO2-Leu-Thr-Phe-R8-Thr-Tyr-Trp-Ala-Gln-Cba-S5-Ser-Ala-Ala-NH2] | 536 | 4E+07 | 4E+07 |  |  | 
4 | CC(C)C[C@H](NC(=O)CCC(=O)NCCOCCOCCCCCCCl)C(=O)N[C@H](C(=O)N[C@@H](Cc1ccccc1)C(=O)N[C@]1(C)CCCCCCC=CCCC[C@@](C)(C(=O)N[C@@H](CO)C(=O)N[C@@H](C)C(=O)N[C@@H](C)C(N)=O)NC(=O)[C@H](CC2CCC2)NC(=O)[C@H](C)NC(=O)[C@H](C)NC(=O)[C@H](Cc2c[nH]c3ccccc23)NC(=O)[C@H](Cc2ccc(O)cc2)NC(=O)[C@H](CCC(=O)O)NC1=O)[C@@H](C)O [PEP000122, HaloTagO2-Leu-Thr-Phe-R8-Glu-Tyr-Trp-Ala-Ala-Cba-S5-Ser-Ala-Ala-NH2] | 1188 | 8E+06 | 9E+07 |  |  | 
5 | CNC(=O)[C@H](C)NC(=O)[C@H](C)NC(=O)[C@H](CO)NC(=O)[C@]1(C)CCCC=CCCCCCC[C@@](C)(NC(=O)[C@H](Cc2ccccc2)NC(=O)[C@@H](NC(=O)[C@H](CC(C)C)NC(=O)CCC(=O)NCCOCCOCCCCCCCl)[C@@H](C)O)C(=O)N[C@@H](CCC(=O)O)C(=O)N[C@@H](Cc2ccc(O)cc2)C(=O)N[C@@H](Cc2c[nH]c3ccccc23)C(=O)N[C@@H](C)C(=O)N[C@@H](CCC(N)=O)C(=O)N[C@@H](CC2CCC2)C(=O)N1 (single isomer, unassigned) [PEP000125, HaloTagO2-Leu-Thr-Phe-R8-Glu-Tyr-Trp-Ala-Gln-Cba-S5-Ser-Ala-Ala-NHMe] |  |  |  | 4E+06 | 5E+07 | 888
6 | CNC(=O)[C@H](C)NC(=O)[C@H](C)NC(=O)[C@H](CO)NC(=O)[C@]1(C)CCCC=CCCCCCC[C@@](C)(NC(=O)[C@H](Cc2ccccc2)NC(=O)[C@@H](NC(=O)[C@H](CC(C)C)NC(=O)CCC(=O)NCCOCCOCCCCCCCl)[C@@H](C)O)C(=O)N[C@@H](CCC(=O)O)C(=O)N[C@@H](Cc2ccc(O)cc2)C(=O)N[C@@H](Cc2c[nH]c3ccccc23)C(=O)N[C@@H](C)C(=O)N[C@@H](C)C(=O)N[C@@H](CC2CCC2)C(=O)N1 [PEP000124, HaloTagO2-Leu-Thr-Phe-R8-Glu-Tyr-Trp-Ala-Ala-Cba-S5-Ser-Ala-Ala-NHMe] |  |  |  | 3E+06 | 5E+07 | 745
7 | CNC(=O)[C@H](C)NC(=O)[C@H](C)NC(=O)[C@H](CO)NC(=O)[C@]1(C)CCCC=CCCCCCC[C@@](C)(NC(=O)[C@H](Cc2ccccc2)NC(=O)[C@@H](NC(=O)[C@H](CC(C)C)NC(=O)CCC(=O)NCCOCCOCCCCCCCl)[C@@H](C)O)C(=O)N[C@@H](CCC(=O)O)C(=O)N[C@@H](Cc2ccc(O)cc2)C(=O)N[C@@H](Cc2c[nH]c3ccccc23)C(=O)N[C@@H](C)C(=O)N[C@@H]([C@@H](C)O)C(=O)N[C@@H](CC2CCC2)C(=O)N1 [PEP000126, HaloTagO2-Leu-Thr-Phe-R8-Glu-Tyr-Trp-Ala-Thr-Cba-S5-Ser-Ala-Ala-NHMe] |  |  |  | 4E+06 | 4E+07 | 561
8 | CC(C)C[C@H](NC(=O)CCC(=O)NCCOCCOCCCCCCCl)C(=O)N[C@H](C(=O)N[C@@H](Cc1ccccc1)C(=O)N[C@]1(C)CCCCCCC=CCCC[C@@](C)(C(=O)N[C@@H](CO)C(=O)N[C@@H](C)C(=O)N[C@@H](C)C(N)=O)NC(=O)[C@H](CC2CCC2)NC(=O)[C@H](CCC(N)=O)NC(=O)[C@H](C)NC(=O)[C@H](Cc2c[nH]c3ccccc23)NC(=O)[C@H](Cc2ccc(O)cc2)NC(=O)[C@H](CCC(=O)O)NC1=O)[C@@H](C)O [PEP000117, HaloTagO2-Leu-Thr-Phe-R8-Glu-Tyr-Trp-Ala-Gln-Cba-S5-Ser-Ala-Ala-NH2] | 1141 | 1E+05 | 8E+07 |  |  | 
9 | CNC(=O)[C@H](C)NC(=O)[C@H](C)NC(=O)[C@H](CO)NC(=O)[C@]1(C)CCCC=CCCCCCC[C@@](C)(NC(=O)[C@H](Cc2ccccc2)NC(=O)[C@@H](NC(=O)[C@H](CC(C)C)NC(=O)CCC(=O)NCCOCCOCCCCCCCl)[C@@H](C)O)C(=O)N[C@@H]([C@@H](C)O)C(=O)N[C@@H](Cc2ccc(O)cc2)C(=O)N[C@@H](Cc2c[nH]c3ccccc23)C(=O)N[C@@H](C)C(=O)N[C@@H](CCC(N)=O)C(=O)N[C@@H](CC2CCC2)C(=O)N1 [PEP000121, HaloTagO2-Leu-Thr-Phe-R8-Thr-Tyr-Trp-Ala-Gln-Cba-S5-Ser-Ala-Ala-NHMe] | 401 | 1E+07 | 2E+07 |  |  | 
10 | CNC(=O)[C@H](C)NC(=O)[C@H](C)NC(=O)[C@H](CO)NC(=O)[C@]1(C)CCCC=CCCCCCC[C@@](C)(NC(=O)[C@H](Cc2ccccc2)NC(=O)[C@@H](NC(=O)[C@H](CC(C)C)NC(=O)CCC(=O)NCCOCCOCCCCCCCl)[C@@H](C)O)C(=O)N[C@@H](CCC(=O)O)C(=O)N[C@@H](Cc2ccc(O)cc2)C(=O)N[C@@H](Cc2c[nH]c3ccccc23)C(=O)N[C@@H](C)C(=O)N[C@@H](CCC(N)=O)C(=O)N[C@@H](CC2CCC2)C(=O)N1 (single isomer, unassigned) [PEP000120, HaloTagO2-Leu-Thr-Phe-R8-Glu-Tyr-Trp-Ala-Gln-Cba-S5-Ser-Ala-Ala-NHMe] | 757 | 3E+05 | 4E+07 |  |  | 
